In ChEMBL document CHEMBL5696441 (Nat Chem Biol, 2011):

How the values were obtained:
[1] = biological target: Activin receptor type-1 (Homo sapiens) (UniProt Q04771); test: Inhibition of ACVR1 (unknown origin) assessed as remaining activity at 1 uM by Kinome scan method relative to control
[2] = biological target: Calcium/calmodulin-dependent protein kinase type 1G (Homo sapiens) (UniProt Q96NX5); test: Inhibition of CAMK1G (unknown origin) assessed as remaining activity at 1 uM by Kinome scan method relative to control
[3] = biological target: Ephrin type-A receptor 7 (Homo sapiens) (UniProt Q15375); test: Inhibition of EPHA7 (unknown origin) assessed as remaining activity at 1 uM by Kinome scan method relative to control
Ephrin type-A receptor 7 (Homo sapiens), sequence (Q15375 28-998 limits assumed): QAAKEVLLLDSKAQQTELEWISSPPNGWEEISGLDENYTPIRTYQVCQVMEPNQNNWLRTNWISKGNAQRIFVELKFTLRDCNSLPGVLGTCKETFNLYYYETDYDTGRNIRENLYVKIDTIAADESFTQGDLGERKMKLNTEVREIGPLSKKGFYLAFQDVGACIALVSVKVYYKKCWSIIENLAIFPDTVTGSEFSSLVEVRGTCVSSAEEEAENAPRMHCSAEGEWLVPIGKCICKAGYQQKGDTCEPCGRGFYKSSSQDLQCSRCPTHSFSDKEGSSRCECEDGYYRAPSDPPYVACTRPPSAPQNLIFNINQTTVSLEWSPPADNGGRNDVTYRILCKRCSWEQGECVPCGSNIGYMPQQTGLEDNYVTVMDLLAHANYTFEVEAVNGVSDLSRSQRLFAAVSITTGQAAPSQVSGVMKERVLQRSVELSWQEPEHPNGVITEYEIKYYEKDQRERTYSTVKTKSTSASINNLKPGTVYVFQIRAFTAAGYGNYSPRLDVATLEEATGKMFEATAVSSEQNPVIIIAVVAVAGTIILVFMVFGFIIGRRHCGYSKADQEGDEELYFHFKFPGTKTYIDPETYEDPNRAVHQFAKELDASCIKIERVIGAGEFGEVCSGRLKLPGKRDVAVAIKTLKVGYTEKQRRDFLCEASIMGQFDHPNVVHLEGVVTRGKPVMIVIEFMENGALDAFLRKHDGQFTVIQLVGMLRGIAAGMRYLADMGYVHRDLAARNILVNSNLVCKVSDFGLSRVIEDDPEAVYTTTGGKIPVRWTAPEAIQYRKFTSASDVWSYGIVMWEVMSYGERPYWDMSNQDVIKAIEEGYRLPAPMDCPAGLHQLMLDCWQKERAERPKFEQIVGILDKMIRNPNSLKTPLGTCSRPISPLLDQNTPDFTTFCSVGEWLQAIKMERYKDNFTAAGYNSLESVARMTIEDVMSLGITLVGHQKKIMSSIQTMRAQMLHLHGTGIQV

[4] = biological target: Ephrin type-B receptor 3 (Homo sapiens) (UniProt P54753); test: Inhibition of EPHB3 (unknown origin) assessed as remaining activity at 1 uM by Kinome scan method relative to control
Ephrin type-B receptor 3 (Homo sapiens), sequence (P54753 whole entry): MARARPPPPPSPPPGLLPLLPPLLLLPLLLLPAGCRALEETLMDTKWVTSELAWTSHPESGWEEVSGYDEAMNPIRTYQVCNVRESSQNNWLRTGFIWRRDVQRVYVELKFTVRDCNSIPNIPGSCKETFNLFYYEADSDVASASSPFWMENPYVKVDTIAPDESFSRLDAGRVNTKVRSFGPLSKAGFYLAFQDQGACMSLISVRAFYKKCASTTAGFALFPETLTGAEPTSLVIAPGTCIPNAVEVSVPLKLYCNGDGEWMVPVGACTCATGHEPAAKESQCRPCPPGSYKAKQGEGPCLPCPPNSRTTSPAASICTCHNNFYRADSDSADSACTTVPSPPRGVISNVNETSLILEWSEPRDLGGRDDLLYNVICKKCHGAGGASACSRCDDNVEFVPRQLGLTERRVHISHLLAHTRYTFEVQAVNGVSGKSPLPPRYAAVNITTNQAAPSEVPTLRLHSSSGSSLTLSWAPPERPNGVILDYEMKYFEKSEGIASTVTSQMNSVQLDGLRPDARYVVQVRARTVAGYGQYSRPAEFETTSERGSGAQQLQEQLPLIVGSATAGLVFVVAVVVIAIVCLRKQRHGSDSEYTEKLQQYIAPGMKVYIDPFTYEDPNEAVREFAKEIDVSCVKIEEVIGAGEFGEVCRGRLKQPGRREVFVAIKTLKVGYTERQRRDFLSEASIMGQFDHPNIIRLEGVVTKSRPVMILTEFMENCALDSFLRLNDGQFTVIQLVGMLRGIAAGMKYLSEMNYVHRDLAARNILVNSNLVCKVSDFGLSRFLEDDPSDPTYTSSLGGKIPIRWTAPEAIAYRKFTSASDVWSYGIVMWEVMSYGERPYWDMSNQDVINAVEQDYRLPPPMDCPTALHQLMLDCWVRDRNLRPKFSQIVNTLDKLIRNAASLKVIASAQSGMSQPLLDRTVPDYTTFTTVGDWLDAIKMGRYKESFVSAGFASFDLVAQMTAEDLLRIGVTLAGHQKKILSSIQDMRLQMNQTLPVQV

[5] = biological target: Tyrosine-protein kinase Fes/Fps (Homo sapiens) (UniProt P07332); test: Inhibition of FES (unknown origin) assessed as remaining activity at 1 uM by Kinome scan method relative to control
[6] = biological target: Tyrosine-protein kinase Fyn (Homo sapiens) (UniProt P06241); test: Inhibition of FYN (unknown origin) assessed as remaining activity at 1 uM by Kinome scan method relative to control
Tyrosine-protein kinase Fyn (Homo sapiens), sequence (P06241 2-537 limits assumed): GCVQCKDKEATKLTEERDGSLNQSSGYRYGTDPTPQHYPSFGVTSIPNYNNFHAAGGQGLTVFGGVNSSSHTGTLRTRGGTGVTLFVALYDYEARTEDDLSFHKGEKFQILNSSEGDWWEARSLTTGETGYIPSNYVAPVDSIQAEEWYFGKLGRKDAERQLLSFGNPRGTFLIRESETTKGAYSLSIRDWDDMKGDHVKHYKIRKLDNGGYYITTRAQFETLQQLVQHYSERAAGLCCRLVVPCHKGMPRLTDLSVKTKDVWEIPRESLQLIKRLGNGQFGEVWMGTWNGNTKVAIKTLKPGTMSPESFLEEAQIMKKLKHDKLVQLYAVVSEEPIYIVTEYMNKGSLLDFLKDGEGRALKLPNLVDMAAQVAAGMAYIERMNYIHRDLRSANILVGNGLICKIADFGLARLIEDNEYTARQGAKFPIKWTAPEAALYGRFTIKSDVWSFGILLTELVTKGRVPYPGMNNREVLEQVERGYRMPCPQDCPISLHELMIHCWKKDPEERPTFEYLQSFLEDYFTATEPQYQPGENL

[7] = biological target: Mitogen-activated protein kinase kinase kinase 2 (Homo sapiens) (UniProt Q9Y2U5); test: Inhibition of MAP3K2 (unknown origin) assessed as remaining activity at 1 uM by Kinome scan method relative to control
[8] = biological target: Serine/threonine-protein kinase PAK 3 (Homo sapiens) (UniProt O75914); test: Inhibition of PAK3 (unknown origin) assessed as remaining activity at 1 uM by Kinome scan method relative to control
[9] = tested on: Phosphatidylinositol 4,5-bisphosphate 3-kinase catalytic subunit alpha isoform (Homo sapiens), P42336 [E545K]; test: Inhibition of PIK3CA E545K mutant (unknown origin) assessed as remaining activity at 1 uM by Kinome scan method relative to control
[10] = biological target: Receptor-interacting serine/threonine-protein kinase 1 (Homo sapiens) (UniProt Q13546); test: Inhibition of RIPK1 (unknown origin) assessed as remaining activity at 1 uM by Kinome scan method relative to control
[11] = biological target: Tyrosine-protein kinase receptor UFO (Homo sapiens) (UniProt P30530); test: Inhibition of human AXL assessed as residual activity at 1 uM using polyEy as substrate in presence of 33P-ATP by ProQinase assay relative to control
[12] = biological target: Bone morphogenetic protein receptor type-1A (Homo sapiens) (UniProt P36894); test: Inhibition of human BMPR1A assessed as residual activity at 1 uM using casein as substrate in presence of 33P-ATP by ProQinase assay relative to control
[13] = biological target: Casein kinase I isoform gamma-2 (Homo sapiens) (UniProt P78368); test: Inhibition of human CK1gamma2 assessed as residual activity at 1 uM using casein as substrate in presence of 33P-ATP by ProQinase assay relative to control
[14] = biological target: Eukaryotic translation initiation factor 2-alpha kinase 3 (Homo sapiens) (UniProt Q9NZJ5); test: Inhibition of human EIF2AK3 assessed as residual activity at 1 uM using casein as substrate in presence of 33P-ATP by ProQinase assay relative to control
[15] = biological target: Ephrin type-A receptor 7 (Homo sapiens) (UniProt Q15375); test: Inhibition of human EPHA7 assessed as residual activity at 1 uM using polyEy as substrate in presence of 33P-ATP by ProQinase assay relative to control
[16] = biological target: Mitogen-activated protein kinase 3 (Homo sapiens) (UniProt P27361); test: Inhibition of human ERK1 assessed as residual activity at 1 uM using RBER-CHKtide as substrate in presence of 33P-ATP by ProQinase assay relative to control
[17] = biological target: Rhodopsin kinase GRK7 (Homo sapiens) (UniProt Q8WTQ7); test: Inhibition of human GRK7 assessed as residual activity at 1 uM using casein as substrate in presence of 33P-ATP by ProQinase assay relative to control
[18] = biological target: Tyrosine-protein kinase JAK1 (Homo sapiens) (UniProt P23458); test: Inhibition of human JAK1 assessed as residual activity at 1 uM using RBER-IRStide as substrate in presence of 33P-ATP by ProQinase assay relative to control
[19] = tested on: Leucine-rich repeat serine/threonine-protein kinase 2 (Homo sapiens), Q5S007 [I2020T]; test: Inhibition of human LRRK2 I2020T mutant assessed as residual activity at 1 uM using RBER-CHKtide as substrate in presence of 33P-ATP by ProQinase assay relative to control
Leucine-rich repeat serine/threonine-protein kinase 2 (Homo sapiens), Q5S007 [I2020T], sequence (Q5S007 whole entry I2020T): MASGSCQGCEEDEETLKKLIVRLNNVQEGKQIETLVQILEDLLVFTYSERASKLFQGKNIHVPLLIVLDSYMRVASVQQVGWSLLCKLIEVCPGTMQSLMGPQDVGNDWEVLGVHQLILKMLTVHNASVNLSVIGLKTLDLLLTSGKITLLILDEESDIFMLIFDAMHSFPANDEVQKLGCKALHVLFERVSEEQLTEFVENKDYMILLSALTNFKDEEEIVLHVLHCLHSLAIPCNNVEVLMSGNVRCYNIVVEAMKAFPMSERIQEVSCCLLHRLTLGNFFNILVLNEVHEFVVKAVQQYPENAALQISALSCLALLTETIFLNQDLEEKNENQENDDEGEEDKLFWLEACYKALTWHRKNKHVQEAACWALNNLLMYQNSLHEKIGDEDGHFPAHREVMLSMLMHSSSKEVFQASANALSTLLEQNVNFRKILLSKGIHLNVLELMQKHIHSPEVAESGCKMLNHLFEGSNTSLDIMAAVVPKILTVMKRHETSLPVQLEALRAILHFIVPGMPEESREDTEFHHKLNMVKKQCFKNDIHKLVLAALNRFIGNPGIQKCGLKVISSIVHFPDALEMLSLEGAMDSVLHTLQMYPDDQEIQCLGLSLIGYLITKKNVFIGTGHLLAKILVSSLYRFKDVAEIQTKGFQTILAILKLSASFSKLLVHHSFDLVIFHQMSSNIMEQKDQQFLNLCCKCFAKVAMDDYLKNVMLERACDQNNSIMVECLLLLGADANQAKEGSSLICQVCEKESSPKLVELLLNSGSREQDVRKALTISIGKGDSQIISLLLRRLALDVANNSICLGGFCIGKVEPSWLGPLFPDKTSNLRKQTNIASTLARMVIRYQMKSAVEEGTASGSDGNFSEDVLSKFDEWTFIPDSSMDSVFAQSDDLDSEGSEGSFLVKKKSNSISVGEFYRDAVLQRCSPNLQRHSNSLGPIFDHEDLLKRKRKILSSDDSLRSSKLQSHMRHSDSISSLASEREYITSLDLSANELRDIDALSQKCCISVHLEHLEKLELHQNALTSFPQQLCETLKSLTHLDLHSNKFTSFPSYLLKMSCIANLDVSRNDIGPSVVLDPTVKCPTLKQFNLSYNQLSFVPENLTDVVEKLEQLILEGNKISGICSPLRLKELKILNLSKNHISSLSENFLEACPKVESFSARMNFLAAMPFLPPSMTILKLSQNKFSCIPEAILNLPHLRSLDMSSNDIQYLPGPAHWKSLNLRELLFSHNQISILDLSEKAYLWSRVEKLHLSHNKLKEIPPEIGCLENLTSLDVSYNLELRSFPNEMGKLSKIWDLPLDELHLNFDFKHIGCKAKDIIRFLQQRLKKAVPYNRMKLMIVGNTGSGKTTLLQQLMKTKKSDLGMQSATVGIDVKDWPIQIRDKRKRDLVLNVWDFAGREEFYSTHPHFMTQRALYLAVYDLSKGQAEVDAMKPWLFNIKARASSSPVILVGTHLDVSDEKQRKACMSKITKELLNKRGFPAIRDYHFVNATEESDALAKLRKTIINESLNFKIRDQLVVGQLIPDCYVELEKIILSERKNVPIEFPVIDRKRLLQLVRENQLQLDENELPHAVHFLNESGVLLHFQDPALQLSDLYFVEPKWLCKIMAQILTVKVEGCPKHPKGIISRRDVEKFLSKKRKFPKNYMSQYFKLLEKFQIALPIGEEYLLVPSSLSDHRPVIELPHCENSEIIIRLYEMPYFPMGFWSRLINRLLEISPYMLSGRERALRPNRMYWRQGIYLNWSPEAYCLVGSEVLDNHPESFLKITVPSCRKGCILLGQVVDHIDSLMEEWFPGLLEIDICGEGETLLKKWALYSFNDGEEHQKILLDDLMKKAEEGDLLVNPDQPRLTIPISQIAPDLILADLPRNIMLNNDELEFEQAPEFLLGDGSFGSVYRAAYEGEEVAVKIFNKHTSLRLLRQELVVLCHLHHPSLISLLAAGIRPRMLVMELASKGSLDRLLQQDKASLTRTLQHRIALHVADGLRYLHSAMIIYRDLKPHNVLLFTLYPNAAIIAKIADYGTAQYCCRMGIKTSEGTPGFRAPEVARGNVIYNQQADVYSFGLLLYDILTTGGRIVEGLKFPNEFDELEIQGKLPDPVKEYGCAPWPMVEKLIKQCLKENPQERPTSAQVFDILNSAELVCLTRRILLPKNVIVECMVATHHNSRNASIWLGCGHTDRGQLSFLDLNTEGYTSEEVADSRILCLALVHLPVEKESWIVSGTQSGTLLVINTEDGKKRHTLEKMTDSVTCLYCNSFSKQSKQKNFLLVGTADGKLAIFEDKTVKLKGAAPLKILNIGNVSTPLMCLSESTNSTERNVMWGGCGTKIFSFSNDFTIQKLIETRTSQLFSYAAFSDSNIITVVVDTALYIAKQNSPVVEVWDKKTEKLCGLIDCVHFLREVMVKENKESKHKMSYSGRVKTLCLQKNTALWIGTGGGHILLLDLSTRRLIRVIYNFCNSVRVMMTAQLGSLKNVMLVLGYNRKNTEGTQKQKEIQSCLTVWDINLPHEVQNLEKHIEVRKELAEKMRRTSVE

[20] = biological target: Leukocyte tyrosine kinase receptor (Homo sapiens) (UniProt P29376); test: Inhibition of human LTK assessed as residual activity at 1 uM using polyEY as substrate in presence of 33P-ATP by ProQinase assay relative to control
[21] = biological target: Serine/threonine-protein kinase Nek11 (Homo sapiens) (UniProt Q8NG66); test: Inhibition of human NEK11 assessed as residual activity at 1 uM using MBP as substrate in presence of 33P-ATP by ProQinase assay relative to control
[22] = biological target: Serine/threonine-protein kinase Nek3 (Homo sapiens) (UniProt P51956); test: Inhibition of human NEK3 assessed as residual activity at 1 uM using RBER-CHKtide as substrate in presence of 33P-ATP by ProQinase assay relative to control
[23] = biological target: Mitogen-activated protein kinase 11 (Homo sapiens) (UniProt Q15759); test: Inhibition of human P38beta assessed as residual activity at 1 uM using ATF2 as substrate in presence of 33P-ATP by ProQinase assay relative to control
[24] = biological target: PAS domain-containing serine/threonine-protein kinase (Homo sapiens) (UniProt Q96RG2); test: Inhibition of human PASK assessed as residual activity at 1 uM using RBER-CHKtide as substrate in presence of 33P-ATP by ProQinase assay relative to control
[25] = biological target: Ribosomal protein S6 kinase alpha-5 (Homo sapiens) (UniProt O75582); test: Inhibition of human RPS6KA5 assessed as residual activity at 1 uM using RBER-CHKtide as substrate in presence of 33P-ATP by ProQinase assay relative to control
[26] = Anti-inflammatory activity against human derived medium respond PBMC cells assessed as inhibition in stimulated MCP-1 chemokine release incubated for 2 hrs in the presence of LPS/SEB/aCD28 by Luminex based sandwich immunoassay; format: functional, cell-based
[27] = Anti-inflammatory activity against human derived medium respond PBMC cells assessed as inhibition in stimulated IL-10 cytokine release incubated for 2 hrs in the presence of LPS/SEB/aCD28 by Luminex based sandwich immunoassay; format: functional, cell-based
CYP1A = CYP1A (Homo sapiens, UniProt P04798+P05177); test: Inhibition of CYP1A (unknown origin) at 10 uM relative to control; format: ADME, protein assay
CYP2C9 = CYP2C9 (Homo sapiens, UniProt P11712); test: Inhibition of CYP2C9 (unknown origin) at 10 uM relative to control; format: ADME
CYP2C19 = CYP2C19 (Homo sapiens, UniProt P33261); test: Inhibition of CYP2C19 (unknown origin) at 10 uM relative to control; format: ADME

## O=C1c2ccc(Nc3ccc(F)cc3F)cc2CCc2ccc(OC[C@H](O)CO)cc21 [Skepinone-L]
[1]
  Activity: 99%
[2]
  Activity: 96%
[3]
  Activity: 89%
[4]
  Activity: 100%
[5]
  Activity: 100%
[6]
  Activity: 98%
[7]
  Activity: 100%
[8]
  Activity: 100%
[9]
  Activity: 100%
[10]
  Activity: 100%
[11]
  Activity: 100%
[12]
  Activity: 100%
[13]
  Activity: 98%
[14]
  Activity: 95%
[15]
  Activity: 109%
[16]
  Activity: 99%
[17]
  Activity: 107%
[18]
  Activity: 93%
[19]
  Activity: 94%
[20]
  Activity: 97%
[21]
  Activity: 113%
[22]
  Activity: 85%
[23]
  Activity: 3%
[24]
  Activity: 88%
[25]
  Activity: 77%
[26]
  IC50: 90 nM
[27]
  IC50: 60 nM
CYP1A
  inhibition at 10 µM: -19%
CYP2C9
  inhibition at 10 µM: 65%
CYP2C19
  inhibition at 10 µM: 42%
